Experiment in all cases: growth of human tumour cells (NCI), 48 h
The subject of experiment [1] is MALME-3M melanoma.
Experiment [2] has as its system PC-3 prostate.
The test system of experiment [3] is SR leukemia.
For experiment [4], the system named is OVCAR-3 ovarian.
The test system of experiment [5] is OVCAR-5 ovarian.
Experiment [6] concerns SW-620 colon.
In experiment [7] the test system is UACC-62 melanoma.
In experiment [8] the test system is A498 renal.
In experiment [9] the test system is SF-539 CNS.
Experiment [10] relates to NCI-H23 lung.

Structures are written as SMILES. Values joined by “and” are separate entries in the source; they are usually repeats but may differ in a detail not shown here. Equal entries are not always repeated.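 In this assay, cells in 96-well plates receive the compound at five concentrations for 48 hours. Endpoints are linearly interpolated between the surrounding concentrations. GI50 = concentration required for 50% inhibition of growth. TGI: concentration producing complete growth inhibition.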 A value given as a limit tells only on which side of the number the result lay.

Take `C=CCc1cccc(/C=N/NC(=O)CN2CCN(Cc3ccccc3)CC2)c1O`: the GI50 was 5.79 µM in experiment [1]; 3.45 µM in experiment [2]; 0.772 µM in [3]; 0.808 µM in experiment [4]; 4.46 µM in [5]; 3.8 µM in experiment [6]. Further, the GI50 in [7] is 3.28 µM; in experiment [8] it was 4.86 µM; in experiment [9] it was 2.32 µM; in experiment [10], 3.05 µM. Further, the TGI was determined as 19.8 µM in experiment [1]; 16.1 µM in experiment [2]; 4.24 µM in [3]; 6.32 µM in experiment [4]; 18.1 µM in experiment [5]; 17.1 µM in experiment [6]. The TGI in experiment [7] turned out to be 12.8 µM; in experiment [8], 18.2 µM; in experiment [9], 9.49 µM; in [10], 16.5 µM.
For the compound `CCN(CC)c1nc(-c2ccc(Cl)cc2Cl)nc2ccccc12`, the GI50 in experiment [1] was 18.9 µM; in experiment [2] it was 24.1 µM; in experiment [3], 8.68 µM; in experiment [4], 15.7 µM; in experiment [5], 26.1 µM; in experiment [6] it was 15.5 µM. For the same compound, the GI50 in experiment [7] was 13.7 µM; in [8], 0.702 µM; in [9], 20.3 µM; in experiment [10], 22.8 µM. The TGI in [1] is 49.7 µM; in experiment [2], over 63.3 µM; in experiment [3], over 53.2 µM; in [4], 47.2 µM; in experiment [5] it was over 68.1 µM; in experiment [6], 34.4 µM. For the same compound, the TGI came out at 41.3 µM in experiment [7], 7.63 µM in experiment [8], 41.9 µM in [9] and 62.8 µM in [10].
Take `O=c1[nH]c(=O)n(C2CC(O)C(CO)O2)cc1CO` (stereo not given): the GI50 in experiment [1], in experiment [2], in experiment [3], in experiment [4], in experiment [5] and in [6] was over 100 µM in each case. The GI50 is over 100 µM in experiment [7], over 100 µM in experiment [8], 21.1 µM in [9] and 31 µM in [10]. Moreover, the TGI in experiment [1], in [2], in [3], in [4], in [5] and in experiment [6] was over 100 µM in each case. For the same compound, the TGI in experiment [7], in [8], in experiment [9] and in experiment [10] was over 100 µM each time.
Consider `COc1cc(-c2nn(-c3cccc(NC(=O)Nc4ccc(Cl)c(Cl)c4)c3)cc2-c2ccncc2)ccc1Cl`, for which the GI50 in experiment [1] is 0.926 µM; in [2] it was 0.554 µM; in [3], 0.932 µM; in experiment [4] it was 0.697 µM; in experiment [5], 2.13 µM; in [6], 1.59 µM. For the same compound, the GI50 was 0.773 µM in [7], 1.14 µM in experiment [8], 0.965 µM in experiment [9] and 1.41 µM in [10]. Further, the TGI was 2.42 µM in [1]; 2.83 µM in experiment [2]; 2.8 µM in experiment [3]; 2.27 µM in experiment [4]; over 50 µM in [5]; over 50 µM in experiment [6]. For the same compound, the TGI was determined as 1.86 µM in experiment [7], 4.59 µM in [8], 3.08 µM in experiment [9] and 5.19 µM in [10].
With `CCCn1c(N)c(C(=O)N/N=C(/C)c2cc3cccc(OC)c3o2)sc1=S`, the GI50 was 74 µM in experiment [1]; 30.6 µM in experiment [2]; 8.66 µM in experiment [3]; 30.1 µM in experiment [4]; over 100 µM in experiment [5]; 19.2 µM in experiment [6]. Further, the GI50 is 34.6 µM in experiment [7], 65.4 µM in experiment [8], 17.1 µM in experiment [9] and 41.1 µM in experiment [10]. Moreover, the TGI in experiment [1], in experiment [2], in experiment [3], in experiment [4], in experiment [5] and in [6] was over 100 µM throughout. Also, the TGI in experiment [7] is over 100 µM; in experiment [8] it was over 100 µM; in experiment [9] it was 90.7 µM; in experiment [10], over 100 µM.
`COc1ccccc1N1CCN(CCCn2c(=O)c3c(OC)nc(C)cc3c(=O)n2-c2ccccc2)CC1`: the GI50 in [1], in [2], in [3], in experiment [4], in experiment [5] and in [6] was over 100 µM each time. The GI50 in experiment [7], in experiment [8], in [9] and in experiment [10] was over 100 µM each time. Also, the TGI in experiment [1], in [2], in experiment [3], in [4], in [5] and in [6] was over 100 µM throughout. For the same compound, the TGI in experiment [7], in experiment [8], in [9] and in experiment [10] was over 100 µM each time.
In the case of `CC1(C)OCCn2c1nc1c(N3CCOCC3)nc(-c3cnc(N)nc3)nc12`, the GI50 in experiment [1] was 0.0974 µM; in [2], 0.318 µM; in experiment [3], 0.752 µM; in [4] it was 0.308 µM; in [5] it was 0.249 µM; in experiment [6], 0.399 µM. Also, the GI50 in experiment [7] was 0.185 µM; in [8], 0.133 µM; in experiment [9], 0.316 µM; in [10], 0.484 µM. For the same compound, the TGI is 0.6 µM in experiment [1]; over 68.6 µM in experiment [2]; over 83.6 µM in experiment [3]; over 31.5 µM in [4]; over 100 µM in experiment [5]; over 100 µM in [6]. Moreover, the TGI in experiment [7] is 1.42 µM; in [8], 0.627 µM; in [9] it was 2.55 µM; in [10] it was over 100 µM.
With `Nc1c(C(=O)Nc2cccc(Br)c2)sc2nc3c(cc12)C(=O)CCC3`, the GI50 in experiment [1] was 0.579 µM; in experiment [2] it was 0.457 µM; in experiment [3], 0.525 µM; in experiment [4] it was 0.359 µM; in [5] it was 6.82 µM; in experiment [6], 0.426 µM. In addition, the GI50 was 0.516 µM in experiment [7], 0.189 µM in [8], 0.448 µM in [9] and 0.583 µM in experiment [10]. The TGI in experiment [1] is over 100 µM; in experiment [2], over 100 µM; in experiment [3], over 100 µM; in experiment [4], over 46.5 µM; in experiment [5], over 100 µM; in [6] it was over 100 µM. Moreover, the TGI is over 100 µM in [7], 8.33 µM in experiment [8], over 100 µM in experiment [9] and over 100 µM in experiment [10].
With `Oc1cc(O)c2c(c1)OC(c1ccc(O)c(O)c1)C(OC1(c3cc(O)c(O)c(O)c3)Oc3cc(O)cc(O)c3C(O)C1O)C2` (stereo not given), the TGI in experiment [1] is over 100 µM; in experiment [2] it was over 100 µM; in experiment [3], 84.7 µM; in experiment [4], over 80 µM; in experiment [5] it was 59.3 µM; in experiment [6] it was 60.4 µM. In addition, the TGI in experiment [7] was over 100 µM; in experiment [8], over 49.9 µM; in [9], over 74.9 µM; in experiment [10] it was 50.4 µM.
Regarding `CC(=O)c1cc2c(o1)C(=O)c1ccccc1C2=O`, the GI50 is 0.18 µM and 0.143 µM in experiment [1]; 0.713 µM and 0.825 µM in experiment [2]; 0.299 µM and 0.308 µM in [3]; 0.218 µM and 0.225 µM in [4]; 0.181 µM and 0.186 µM in [5]; 0.288 µM and 0.276 µM in experiment [6]. The GI50 was 0.229 µM and 0.178 µM in experiment [7]; 0.682 µM and 1.37 µM in experiment [8]; 0.178 µM and 0.184 µM in experiment [9]; 0.19 µM and 0.153 µM in experiment [10]. Also, the TGI in [1] was 0.332 µM and 0.281 µM; in [2] it was 2.81 µM and 4.48 µM; in [3] it was 5.36 µM; in experiment [4], 0.507 µM and 0.529 µM; in [5], 0.346 µM and 0.345 µM; in experiment [6], 0.794 µM and 0.756 µM. Further, the TGI is 0.476 µM and 0.335 µM in experiment [7]; 1.48 µM and 2.69 µM in [8]; 0.317 µM and 0.328 µM in experiment [9]; 0.535 µM and 0.458 µM in experiment [10].
Turning to `CCOc1ccc2nc(S/C(=C/C=C(C#N)C#N)c3ccc(C)cc3)sc2c1`, the GI50 in experiment [1] is 33 µM; in experiment [2] it was 33.9 µM; in experiment [3] it was 2.92 µM; in [4], 32.6 µM; in experiment [5], 57.5 µM; in experiment [6], 5.35 µM. For the same compound, the GI50 in experiment [7] is 22 µM; in experiment [8], 42.3 µM; in experiment [9] it was 26 µM; in [10], 35.6 µM. The TGI was over 100 µM in [1]; over 100 µM in [2]; 7.43 µM in [3]; over 100 µM in experiment [4]; over 100 µM in experiment [5]; 35.8 µM in experiment [6]. The TGI in [7] is 54.1 µM; in experiment [8], over 100 µM; in [9], 57.2 µM; in [10], 97.3 µM.
With `CC(CC(=O)O)C(C(=O)O)C(=O)O` (stereo not given), the TGI in [1], in experiment [2], in experiment [3], in [4], in experiment [5] and in experiment [6] was over 100 µM throughout. The TGI in experiment [7], in [8], in experiment [9] and in [10] was over 100 µM in each case.

Values taken from PubChem BioAssay (NCI).
